Patent US11667678B2, “Peptides for the treatment of COVID-19” (priority 2019, dated 2023)
Peptide text beside a SMILES is read from it.

How the values were obtained:
control mice = details: mouse, in vivo
[1] = test system: SARS-CoV-2 spike S1-intoxicated C57/BL6 mice; details: mouse, in vivo
[2] = molecular target: ACE2:SARS-CoV-2 spike S1 binding (UniProt P0DTC2+Q9BYF1)
[3] = test system: human A549 lung cells stimulated with recombinant SARS-CoV-2 spike S1; details: 'See herein and Paidi et al.'; cited from earlier work
[4] = test system: human A549 lung cells stimulated with HIV-1 Tat; assay type: cell-based
[5] = test system: human A549 lung cells stimulated with recombinant SARS-CoV-2 spike S1; assay type: cell-based
[6] = test system: SARS-CoV-2 spike S1-intoxicated C57/BL6 mice; details: mouse, in vivo; remark: listed apart in the source
[7] = test system: human A549 lung cells stimulated with poly IC; assay type: cell-based
[8] = test system: human A549 lung cells stimulated with bacterial flagellin; assay type: cell-based

Row | Compound | drug-related side effect (hair loss, appetite loss, weight loss, untoward infection and irritation) (control mice) | arrhythmias (ECG heart functions) [1] | fever (body temperature) [1] | infiltration of neutrophils into the lungs [1] | level of proinflammatory molecules in lungs and serum [1] | locomotor activities [1] | serum level of C-reactive protein (CRP) [1] | SARS-CoV-2 spike S1 binding to immobilized ACE2 [2] | SARS-CoV-2 spike S1-induced expression of proinflammatory cytokines [3] | expression of IL-6 and IL-1β induced by HIV-1 Tat [4] | SARS-CoV-2 spike S1-mediated induction of IL-6 and IL-1β (mRNA) [5] | body temperature (fever) [6] | level of IL-6 mRNA and protein as well as IL-1β mRNA in lungs [6] | level of serum IL-6 [6] | lung neutrophil infiltration [6] | expression of IL-6 and IL-1β induced by poly IC [7] | expression of IL-6 and IL-1β induced by flagellin [8]
1 | CC(C)[C@H](NC(=O)CNC(=O)[C@H](CC(N)=O)NC(=O)[C@@H](N)[C@@H](C)O)C(=O)NCC(=O)N[C@@H](Cc1ccc(O)cc1)C(=O)O [wtAIDS, TNGVGY] (H-TNGVGY-OH) | did not notice any drug-related side effect |  |  |  |  |  |  |  |  |  |  |  |  |  |  |  | 
2 | EDLFYQ (SPIDAR peptide) [wtSPIDAR] |  | reduced arrhythmias | reduced fever | attenuated | decreased | improved locomotor activities | normalized | Inhibition | markedly suppresses |  |  |  |  |  |  |  | 
3 | TGGVGD (mAIDS peptide) |  |  |  |  |  |  |  | no such inhibition |  | had no effect | had no effect | no such inhibitory effect | no such inhibitory effect | no such inhibitory effect | no such inhibitory effect | had no effect | had no effect
